Test results: the supplement of paper PMC10307832

How the values were obtained:
Assay in all cases: relative viability (nuclei count vs DMSO), 5 days (fraction); higher = more cells survive
PAC-1 + Decitabine = compound: C=CCc1cccc(/C=N/NC(=O)CN2CCN(Cc3ccccc3)CC2)c1O [PAC-1] + Nc1ncn([C@H]2C[C@H](O)[C@@H](CO)O2)c(=O)n1 [Decitabine] (partner 2 µM)
In short: (§1)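 Lung cancer cell lines, seeded in 1536-well plates, were treated the following day by pin tool with a single drug or with five library-drug doses (not always all listed) in √10 steps on top of a fixed anchor-drug dose. Cells were fixed and nuclei stained in one step after 5 days, and nuclei were counted. Relative viability is the nuclei count for treated wells divided by that for vehicle wells, reported as medians of duplicate plates.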

BMX-IN-1 + Luminespib = compound: C=CC(=O)Nc1cc(-n2c(=O)ccc3cnc4ccc(-c5ccc(NS(C)(=O)=O)cc5)cc4c32)ccc1C [BMX-IN-1] + CCNC(=O)c1noc(-c2cc(C(C)C)c(O)cc2O)c1-c1ccc(CN2CCOCC2)cc1 [Luminespib] (partner 0.01 µM)
In short: as §1

PAC-1 + Lapatinib = compound: C=CCc1cccc(/C=N/NC(=O)CN2CCN(Cc3ccccc3)CC2)c1O [PAC-1] + CS(=O)(=O)CCNCc1ccc(-c2ccc3ncnc(Nc4ccc(OCc5cccc(F)c5)c(Cl)c4)c3c2)o1 [Lapatinib] (partner 2 µM)
In short: as §1

BMX-IN-1 + Olaparib = compound: C=CC(=O)Nc1cc(-n2c(=O)ccc3cnc4ccc(-c5ccc(NS(C)(=O)=O)cc5)cc4c32)ccc1C [BMX-IN-1] + O=C(c1cc(Cc2n[nH]c(=O)c3ccccc23)ccc1F)N1CCN(C(=O)C2CC2)CC1 [Olaparib] (partner 8 µM)
In short: as §1

| Cell Line | relative viability (PAC-1 + Decitabine; first compound 0.02 µM) | relative viability (PAC-1 + Decitabine; first compound 0.06325 µM) | relative viability (PAC-1 + Decitabine; first compound 0.2 µM) | relative viability (PAC-1 + Decitabine; first compound 2 µM) | relative viability (BMX-IN-1 + Luminespib; first compound 0.02 µM) | relative viability (BMX-IN-1 + Luminespib; first compound 0.2 µM) | relative viability (BMX-IN-1 + Luminespib; first compound 0.6325 µM) | relative viability (BMX-IN-1 + Luminespib; first compound 2 µM) | relative viability (PAC-1 + Lapatinib; first compound 0.02 µM) | relative viability (PAC-1 + Lapatinib; first compound 0.06325 µM) | relative viability (PAC-1 + Lapatinib; first compound 0.2 µM) | relative viability (PAC-1 + Lapatinib; first compound 2 µM) | relative viability (BMX-IN-1 + Olaparib; first compound 0.02 µM) | relative viability (BMX-IN-1 + Olaparib; first compound 0.2 µM) | relative viability (BMX-IN-1 + Olaparib; first compound 0.6325 µM) | relative viability (BMX-IN-1 + Olaparib; first compound 2 µM) |
| --- | --- | --- | --- | --- | --- | --- | --- | --- | --- | --- | --- | --- | --- | --- | --- | --- |
| LC-2-ad | 0.827 | 0.75 | 0.779 | 0.672 | 1.16 | 1.1 | 0.884 | 0.974 | 0.983 | 0.957 | 0.984 | 0.865 | 0.829 | 0.848 | 0.674 | 0.733 |
| NCI-H1975 | 0.413 | 0.408 | 0.333 | 0.388 | 0.253 | 0.21 | 0.481 | 0.159 | 0.866 | 0.871 | 0.939 | 0.97 | 0.837 | 1.02 | 0.853 | 0.841 |
| NCI-H1793 | 0.48 | 0.589 | 0.396 | 0.542 | 0.172 | 0.167 | 0.167 | 0.204 | 0.48 | 0.753 | 0.62 | 0.652 | 1.1 | 1.01 | 1.05 | 0.92 |
| Calu-6 |  |  |  |  |  |  |  |  | 1.06 | 1.08 | 1.01 | 1.18 | 0.533 | 0.656 | 0.607 | 0.565 |
| HCC-366 | 0.373 | 0.303 | 0.264 | 0.337 |  |  |  |  | 1.07 | 1.03 | 1.06 | 0.976 | 0.416 | 0.406 | 0.442 | 0.361 |
| NCI-H2347 | 0.637 | 0.598 | 0.606 | 0.621 | 0.438 | 0.356 | 0.517 | 0.353 | 0.947 | 0.885 | 0.859 | 0.892 | 0.523 | 0.603 | 0.597 | 0.573 |
| NCI-H2405 | 0.759 | 0.821 | 0.707 | 0.765 | 0.747 | 0.754 | 0.669 | 0.674 | 1.03 | 1.17 | 1.14 | 1.24 | 0.958 | 0.958 | 0.977 | 0.865 |
| HCC-44 | 1.03 | 0.914 | 0.855 | 0.933 | 1.29 | 1.27 | 0.821 | 1.04 | 1.06 | 1.04 | 0.962 | 1.03 | 1.02 | 0.994 | 1.03 | 1.07 |
| NCI-H1563 |  |  |  |  | 0.549 | 0.461 | 0.523 | 0.521 | 0.967 | 0.91 | 1.07 | 1.01 |  |  |  |  |
| NCI-H1666 | 0.721 | 0.763 | 0.713 | 0.713 | 1.05 | 1.08 | 1.04 | 1 | 0.613 | 0.608 | 0.911 | 0.663 | 0.753 | 0.806 | 0.631 | 0.769 |
| NCI-H650 | 0.307 | 0.331 | 0.298 | 0.45 | 0.789 | 0.831 | 0.914 | 0.773 | 1.09 | 1.05 | 0.668 | 0.747 | 0.366 | 0.379 | 0.469 | 0.456 |
| EPLC-272H | 0.369 | 0.39 | 0.342 | 0.324 | 0.208 | 0.223 | 0.242 | 0.247 |  | 1.2 | 0.978 | 0.942 | 0.823 | 0.834 | 0.509 | 0.677 |
| LXF-289 | 0.405 | 0.39 | 0.388 | 0.377 | 0.816 | 0.809 | 0.825 | 0.671 | 0.901 | 0.903 | 0.897 | 0.927 | 1.32 | 1.19 | 1.12 | 1.14 |
| LOU-NH91 | 0.813 | 0.813 | 0.811 | 0.796 | 0.3 |  | 0.363 | 0.315 | 0.723 | 0.82 | 0.749 | 0.782 |  | 0.978 | 0.946 | 0.862 |
| LCLC-103H | 0.725 | 0.784 | 0.71 | 0.736 | 1.1 | 0.933 | 0.956 | 0.882 |  |  |  |  | 0.883 | 0.886 | 0.834 | 0.741 |
| NCI-H1944 | 0.435 | 0.459 | 0.466 | 0.456 | 0.812 | 0.729 | 0.728 | 0.706 | 0.754 | 0.798 | 0.768 | 0.867 | 0.439 | 0.414 | 0.396 | 0.435 |
| IA-LM |  |  |  |  |  |  |  |  | 0.937 | 0.922 | 0.715 | 1.08 | 0.871 | 0.843 | 0.938 | 0.94 |
| NCI-H1299 |  |  |  |  |  |  |  |  | 0.981 | 0.967 | 0.975 | 0.949 | 1.05 | 0.978 | 0.992 | 1.03 |
| NCI-H1648 | 0.415 | 0.577 | 0.452 | 0.551 |  |  |  |  |  |  |  |  | 0.994 | 0.849 | 0.958 | 0.925 |
| NCI-H1703 |  |  |  |  |  |  |  |  | 0.901 | 1.31 | 0.906 | 0.952 | 0.486 | 0.368 | 0.284 | 0.336 |
| NCI-H2342 | 0.791 | 0.705 | 0.704 | 0.733 | 0.774 | 0.765 | 0.707 | 0.703 |  |  |  |  | 0.44 | 0.446 | 0.473 | 0.43 |
| NCI-H1623 |  |  |  |  | 0.431 | 0.52 | 0.804 | 0.484 |  |  |  |  |  |  |  |  |
| SW 900 |  | 0.393 | 0.478 | 0.378 | 0.172 | 0.182 | 0.165 | 0.179 |  |  |  |  | 1.15 | 0.938 | 0.819 | 0.782 |
| NCI-H441 | 0.256 | 0.258 | 0.171 | 0.23 | 0.384 | 0.428 | 0.56 | 0.279 |  |  |  |  | 0.52 | 0.658 | 0.619 | 0.591 |
| ChaGo-K-1 | 0.522 | 0.506 | 0.458 | 0.54 | 0.665 | 0.708 | 0.536 | 0.778 |  |  |  |  | 0.435 | 0.443 | 0.416 | 0.417 |
